Data from patent US8318778B2, “Urea glucokinase activators” (Novo Nordisk A/S, priority 2007, dated 2012).

Molecular target: T1, recombinant human glucokinase (Homo sapiens, UniProt P35557)
T1 construct: N-terminal His-tag ((His)8-VEQILA . . . Q466); made in house; host or cells: E. coli
T1 sequence (P35557 17-466 isoform P35557-2): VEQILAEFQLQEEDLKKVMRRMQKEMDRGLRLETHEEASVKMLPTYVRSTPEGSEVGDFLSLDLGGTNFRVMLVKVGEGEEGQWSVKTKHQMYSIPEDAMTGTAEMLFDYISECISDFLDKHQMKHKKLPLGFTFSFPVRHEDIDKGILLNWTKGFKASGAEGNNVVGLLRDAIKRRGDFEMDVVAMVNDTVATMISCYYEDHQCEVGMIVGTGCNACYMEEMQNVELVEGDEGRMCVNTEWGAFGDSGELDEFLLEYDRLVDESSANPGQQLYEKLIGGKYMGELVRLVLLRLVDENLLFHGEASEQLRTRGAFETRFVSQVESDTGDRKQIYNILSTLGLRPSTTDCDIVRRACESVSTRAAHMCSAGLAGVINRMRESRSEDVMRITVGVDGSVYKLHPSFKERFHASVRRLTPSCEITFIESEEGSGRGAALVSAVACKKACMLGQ
Experiment: Glucokinase Activity Assay (I): spectrometric assay coupled to glucose 6-phosphate dehydrogenase
Assay type: biochemical
Conditions: 15 mM glucose
Method: Glucokinase activity is assayed spectrometrically coupled to glucose 6-phosphate dehydrogenase to determine compound activation of glucokinase. The final assay contains 50 mM Hepes, pH 7.1, 50 mM KCl, 5 mM MgCl2, 2 mM dithiothreitol, 0.6 mM NADP, 1 mM ATP, 0.195 μM G-6-P dehydrogenase (from Roche, 127 671), 15 nM recombinant human glucokinase.
The purification of His-tagged human glucokinase (hGK) was performed as follows: The cell pellet from 50 ml E. coli culture was resuspended in 5 ml extraction buffer A (25 mM HEPES, pH 8.0, 1 mM MgCl2, 150 mM NaCl, 2 mM mercaptoethanol) with addition of 0.25 mg/ml lysozyme and 50 μg/ml sodium azide. […]
The compound to be tested is added into the well in final 2.5% DMSO concentration in an amount sufficient to give a desired concentration of compound, for instance 1, 5, 10, 25 or 50 μM. […] The plate is incubated at 25° C. for 5 min and kinetics is measured at 340 nm in SpectraMax every 30 seconds for 5 minutes. Results for each compound are expressed as the fold activation of the glucokinase activity compared to the activation of the glucokinase enzyme in an assay without compound after having been subtracted from a “blank”, which is without glucokinase enzyme and without compound. […]
The glucose sensitivity of the compounds are measured at a compound concentration of 10 μM and at glucose concentrations of 5 and 15 mM.

Structure (SMILES): C[C@H]1CC[C@H](N(CC(F)(F)c2ccccc2)C(=O)Nc2ncc(SCC(=O)O)s2)CC1 [Example 83, {2-[3-(2,2-Difluoro-2-phenyl-ethyl)-3-(trans-4-methyl-cyclohexyl)-ureido]-thiazol-5-ylsulfanyl}-acetic acid]
- EC50: 289 nM
- FA (15 mM) (fold activation of glucokinase activity vs assay without compound): 2.1
